{"source": "ChEMBL document CHEMBL1255246", "about": "“Systemic pharmacokinetics of rifaximin in volunteers with shigellosis” (Antimicrob Agents Chemother, 2008)", "format_in_all_cases": "ADME, organism-based", "key": {"[1]": {"test": "Cmax in Shigella flexneri challenged human at […], po administered every 8 hrs for three days measured after last dose", "design": "route oral", "settings": "in vivo"}, "[2]": {"test": "Cmax in Shigella flexneri challenged human at […], po administered every 8 hrs for three days measured after third dose", "design": "route oral", "settings": "in vivo"}, "[3]": {"test": "Tmax in Shigella flexneri challenged human at […], po administered every 8 hrs for three days measured after last dose", "design": "route oral", "settings": "in vivo"}, "[4]": {"test": "Tmax in Shigella flexneri challenged human at […], po administered every 8 hrs for three days measured after third dose", "design": "route oral", "settings": "in vivo"}, "[5]": {"test": "AUC (0 to last) in Shigella flexneri challenged human at […], po administered every 8 hrs for three days measured after last dose", "design": "time 0 - last, route oral", "settings": "plasma"}, "[6]": {"test": "Oral bioavailability in human at 200 mg three times a day for 3 days", "settings": "in vivo"}, "[7]": {"test": "AUC (0 to last) in Shigella flexneri challenged human at […], po administered every 8 hrs for three days measured after third dose", "design": "route oral, time 0 - last", "settings": "plasma"}, "[8]": {"test": "Drug level in healthy human urine at 400 mg single dose", "settings": "read-out: Drug uptake"}, "[9]": {"test": "Drug level in healthy human feces at 400 mg single dose", "settings": "faeces, read-out: Drug uptake"}}, "data": [{"smiles": "CO[C@H]1/C=C/O[C@@]2(C)Oc3c(C)c(O)c4c(O)c(c5c(nc6cc(C)ccn65)c4c3C2=O)NC(=O)/C(C)=C\\C=C\\[C@H](C)[C@H](O)[C@@H](C)[C@@H](O)[C@@H](C)[C@H](OC(C)=O)[C@@H]1C", "note": "[RIFAXIMIN]", "values": [{"measurement": "Cmax", "setting": "[1]", "value": 1.23, "unit": "ng/mL"}, {"measurement": "Cmax", "setting": "[2]", "value": 1.63, "unit": "ng/mL"}, {"measurement": "Tmax", "setting": "[3]", "value": 2.11, "unit": "h"}, {"measurement": "Tmax", "setting": "[4]", "value": 2.77, "unit": "h"}, {"measurement": "AUC(0-t) at 8 h", "setting": "[5]", "value": 7.83, "unit": "ng·h/mL"}, {"measurement": "bioavailability", "setting": "[6]", "value": "< 0.4", "unit": "%"}, {"measurement": "AUC(0-t) at 8 h", "setting": "[7]", "value": 6.95, "unit": "ng·h/mL"}, {"measurement": "dose excreted", "setting": "[8]", "value": 0.32, "unit": "%"}, {"measurement": "dose excreted", "setting": "[9]", "value": 97, "unit": "%"}]}]}
